Laboratory results reported in paper PMC12040169 (PLOS Biology, 2025).

Experiment: in vitro
Details: human, hela cells, % viability

Compound	viability at 28.5 h, 10 µM [%]
CC(=O)N1Cc2ccccc2OC2(CCN(C(=O)C3CC3)CC2)C1 [CBK285037]	104
CC(C)(C)OC(=O)N1CCC(c2nc3ccccc3cc2N)CC1 [CBK285038]	82.6
CC(=O)NC(c1ccccn1)C1CCCN(C(=O)C2CC2)C1 (stereo not shown) [CBK285040]	100
Cn1cc(CN2CCCC(c3cc4ccccc4cn3)C2)cn1 (stereo not shown) [CBK285042]	101
Cc1csc(C(Cc2ccsc2)NC(=O)C2CCOCC2)n1 (stereo not shown) [CBK285047]	102
Cc1ccc2c(c1)C(=O)NCC1(CCN(Cc3ccccc3)CC1)O2 [CBK285048]	104
CC(=O)NC(c1ccccn1)C1CCN(C(=O)C2CCCCC2)CC1 (stereo not shown) [CBK285049]	98
Cn1nc(C2CCN(C(=O)CCc3ccccc3)CC2)c2cccnc21 [CBK285050]	103
Cc1c(C(=O)NC(Cc2cccs2)c2nccs2)cnn1C (stereo not shown) [CBK285053]	97.1
Cn1nccc1C(=O)NC(Cc1cccs1)c1nccs1 (stereo not shown) [CBK285055]	102
c1cnc2[nH]c(C3CCNCC3)c(CN3CCCCCC3)c2c1 [CBK285057]	102
O=C(Cn1c(C2CCCNC2)cc2cccnc21)N1CCCC1 (stereo not shown) [CBK285060]	94.4
CN(C)CC(=O)NC(Cc1cccs1)c1nccs1 (stereo not shown) [CBK285061]	91.1
O=C(c1n[nH]cc1Cl)N1CCCC(c2cc3ccccc3cn2)C1 (stereo not shown) [CBK285062]	88
O=C(CCn1c(C(F)F)cc2cccnc21)NC1CCCC1 [CBK285063]	95.5
O=C(CCn1c(C(F)F)cc2cccnc21)NC1CCCCC1 [CBK285064]	92.1
COc1ccccc1NC(=O)CCn1c(C(F)F)cc2cccnc21 [CBK285065]	99.2
O=C(CCn1c(C(F)F)cc2cccnc21)NCc1ccc(F)cc1 [CBK285067]	102
O=C(CCn1c(C(F)F)cc2cccnc21)NCc1ccccn1 [CBK285068]	100
CN(Cc1ccncc1)C(=O)CCn1c(C(F)F)cc2cccnc21 [CBK285070]	81
CN(C)CC1COc2ccccc2CN1C(=O)Cc1ccccc1F (stereo not shown) [CBK285080]	89.5
CCC(C)NC(=O)Cn1c(C2CCCNC2)cc2cccnc21 (stereo not shown) [CBK285085]	109
O=C(Cn1cccc2cc(C3CCCNC3)nc1-2)N1CCCC1 (stereo not shown) [CBK285086]	88.7
O=C1CCCN1CC(=O)N1CCCC(c2cc3ccccc3cn2)C1 (stereo not shown) [CBK285091]	99.7

Compound	viability at 28.5 h, 10 µM [%]
O=C(Cn1ccnc1)NC(Cc1cccs1)c1nccs1 (stereo not shown) [CBK285092]	93.2
Cc1n[nH]c(C)c1CC(=O)NC(Cc1cccs1)c1nccs1 (stereo not shown) [CBK285093]	92.1
O=C(CCCn1ccnc1)NC(Cc1cccs1)c1nccs1 (stereo not shown) [CBK285094]	90.1
Cn1cc(Cl)c(C2CCCCCN2C(=O)c2ccco2)n1 (stereo not shown) [CBK285105]	96.5
Cc1csc(C(Cc2ccsc2)NC(=O)c2ccnn2C)n1 (stereo not shown) [CBK285107]	104
Cc1csc(C(Cc2ccsc2)NC(=O)c2ccc(=O)[nH]c2)n1 (stereo not shown) [CBK285109]	95.2
O=C(NC(Cc1ccsc1)c1cccnc1)C1CCOCC1 (stereo not shown) [CBK285110]	92.9
Cn1cccc1CN1CCCC(n2c(=O)oc3ccccc32)C1 (stereo not shown) [CBK285111]	103
CO[C@H]1CC[C@H](C(=O)NC(Cc2ccsc2)c2cccnc2)CC1 (stereo partly shown) [CBK285114]	107
Cc1c(C(=O)NC(Cc2ccsc2)c2cccnc2)cnn1C (stereo not shown) [CBK285115]	110
O=C(NC(Cc1ccsc1)c1cccnc1)C1CCOC1 (stereo not shown) [CBK285116]	106
Cn1ccc(C(=O)NC(Cc2ccsc2)c2cccnc2)n1 (stereo not shown) [CBK285117]	107
Cn1cc(Cl)c(C2CCCCCN2C(=O)c2cc(C3CC3)on2)n1 (stereo not shown) [CBK285120]	109
Cc1csc(C(Cc2ccsc2)NC(=O)C2CCCO2)n1 (stereo not shown) [CBK285122]	107
Cc1csc(C(Cc2cccs2)NC(=O)CN(C)C)n1 (stereo not shown) [CBK285124]	97.9
Cc1nonc1CC(=O)N[C@H]1C2CCCCC2[C@@H]1c1ccccc1 (stereo partly shown) [CBK285126]	102
O=C(c1ccc(F)cc1)c1cn(CCO)c2c(Cl)nccc12 [CBK285129]	106
O=C(NC(Cc1cccs1)c1nccs1)c1ccncc1 (stereo not shown) [CBK285134]	93.9
O=C(Cn1cccn1)NC(Cc1cccs1)c1nccs1 (stereo not shown) [CBK285136]	94.4
Cn1cc(C(=O)NC(Cc2ccsc2)c2nccs2)ccc1=O (stereo not shown) [CBK285140]	98.5
C=CCn1cc(CN2CCCC(O)(c3ccc(F)cc3)CC2)c(C)n1 (stereo not shown) [CBK285144]	92
Cn1ncc(Cl)c1C1CCCCCN1C(=O)c1cccnc1 (stereo not shown) [CBK285146]	108
Cc1csc(C(Cc2ccsc2)NC(=O)c2cnn(C)c2C)n1 (stereo not shown) [CBK285148]	104
Cc1csc(C(Cc2ccsc2)NC(=O)CCn2cccn2)n1 (stereo not shown) [CBK285149]	93.7

Compound	viability at 28.5 h, 10 µM [%]
Cc1csc(C(Cc2ccsc2)NC(=O)C2CCOC2)n1 (stereo not shown) [CBK285150]	94.9
Cc1cnn(CC(=O)NC(Cc2ccsc2)c2nc(C)cs2)c1 (stereo not shown) [CBK285151]	86.6
Cc1ncccc1C(=O)NC(Cc1cccs1)c1nccs1 (stereo not shown) [CBK285153]	91.4
O=C(c1cccnc1)N1CCCC(c2cc3ccccc3cn2)C1 (stereo not shown) [CBK285154]	98.6
Cn1cc(C(=O)N2CCCC(c3cc4ccccc4cn3)C2)cn1 (stereo not shown) [CBK285155]	106
CCc1cc(C(=O)N2CCCC(c3cc4ccccc4cn3)C2)on1 (stereo not shown) [CBK285156]	101
O=C(Cn1c(C2CCOCC2)cc2cccnc21)NC1CCCC1 [CBK285157]	86.3
O=C(CCCn1ccnc1)NC(Cc1ccsc1)c1cccnc1 (stereo not shown) [CBK285158]	94.9
c1ccc([C@@H]2CN(Cc3cccnc3)C[C@H]2c2cc[nH]n2)cc1 [CBK285160]	88.9
C[C@H]1CN2C[C@H](O)CC2CN1Cc1cccn1Cc1ccccc1F (stereo partly shown) [CBK285165]	88.7
O=C(c1ccncc1)N1CCCC(c2cc3ccccc3cn2)C1 (stereo not shown) [CBK285166]	87
Cc1cnc2[nH]c(C(F)(F)F)c(CN3CCCC(CO)C3)c2c1 (stereo not shown) [CBK285167]	93.6
Cc1cnc2[nH]c(C3CCCN(C(=O)c4cn(C)nc4C)C3)cc2c1 (stereo not shown) [CBK285170]	110
Cc1cnc2[nH]c(C3CCCN(C(=O)c4cnn(C)c4C)C3)cc2c1 (stereo not shown) [CBK285171]	101
COCC(C)NC(=O)CCn1ccc2ccncc21 (stereo not shown) [CBK285172]	93.8
CC1(C)CCCN(C(=O)CCn2ccc3ccncc32)C1 [CBK285173]	87.3
CCC1(CC)CCN(C(=O)CCn2ccc3ccncc32)C1 [CBK285176]	84.9
CC(=O)N1CCCC(c2cc3cccnc3n2CC(=O)N(C)C)C1 (stereo not shown) [CBK285177]	106
Cc1ccnn1CCC(=O)N1CCCC1c1nc2ccccc2[nH]1 (stereo not shown) [CBK285178]	110
Cn1cc([C@@H]2CN(Cc3ccc(F)c(F)c3)C[C@H]2N)c2ccncc21 [CBK285179]	88.3
Cc1ccc(CN2C[C@@H](N)[C@H](c3cn(C)c4cnccc34)C2)o1 [CBK285180]	84.2
O=C(c1cccs1)N1CCC(c2onc3c2CCCC3)CC1 [CBK285181]	93.3
COC(=O)C1(Cc2cc(-c3ccccc3F)no2)CCOCC1 [CBK285182]	87.8
Cc1ccn2cc(-c3ccc4c(c3)CC(C)N4S(C)(=O)=O)nc2c1 (stereo not shown) [CBK285183]	84.6

Compound	viability at 28.5 h, 10 µM [%]
Cc1ccc2nc(-c3ccc4c(c3)CC(C)N4S(C)(=O)=O)cn2c1 (stereo not shown) [CBK285184]	79.4
CCOC(=O)CC(=O)N1CCC(c2onc3c2CC(C)CC3)CC1 (stereo not shown) [CBK285187]	100
CN(C)CC1CN(C(=O)c2ccccc2F)Cc2ccccc2O1 (stereo not shown) [CBK285188]	86.9
O=C(C1CC1)N1CCc2cc(-c3cn4ccccc4n3)ccc21 [CBK285193]	99.2
CC1Cc2cc(-c3cn4ccccc4n3)ccc2N1S(C)(=O)=O (stereo not shown) [CBK285194]	94.3
Cc1c(C(=O)N2CCC(c3nc(C)n4ccsc34)CC2)cnn1C [CBK285201]	111
OC1(c2cccnc2)C2CCCC1CN(Cc1cccc(F)c1F)C2 (stereo not shown) [CBK285205]	88.1
Cn1ccnc1C1(O)C2CCCC1CN(Cc1ccccc1F)C2 (stereo not shown) [CBK285206]	97.2
Cn1nccc1C(=O)NC(Cc1cccs1)c1ccccn1 (stereo not shown) [CBK285207]	96.1
Cc1ccc(C(=O)NC(Cc2cccs2)c2ccccn2)c(=O)[nH]1 (stereo not shown) [CBK285210]	89.8
Cc1ccn2cc(-c3ccc4c(c3)CCN4S(C)(=O)=O)nc2c1 [CBK285221]	88.3
O=C(NC1CC1)C1(Cc2ccccc2-c2cccnc2)CCOCC1 [CBK285222]	88.7
CC(=O)N1CCc2cc(-c3cc4ccccn4c3)ccc21 [CBK285224]	104
Cc1cccn2cc(-c3ccc4c(c3)CCN4S(C)(=O)=O)cc12 [CBK285226]	95.5
CC(=O)N1CCc2cc(-c3cc4cc(C)ccn4c3)ccc21 [CBK285228]	75.2
Cn1ncc2c1CCCN(C(=O)COc1ccc(F)cc1F)C2 [CBK285229]	90.6
CC(Oc1ccc(F)cc1)C(=O)N1CCCc2c(cnn2C)C1 (stereo not shown) [CBK285230]	82.1
Cn1ncc2c1CCCN(C(=O)Cc1ccc(Cl)cc1)C2 [CBK285231]	106
CC1CCc2noc(C3CCN(C(=O)c4ccnn4C)CC3)c2C1 (stereo not shown) [CBK285232]	105
Cc1nc(C2CCCN(C(=O)c3cccnc3)C2)c2sccn12 (stereo not shown) [CBK285233]	93
Cc1nc(C2CCCN(C(=O)c3ccnn3C)C2)c2sccn12 (stereo not shown) [CBK285235]	87.2
Cc1csc2c(C3CCCN(C(=O)c4cc[nH]n4)C3)nc(C)n12 (stereo not shown) [CBK285238]	88.1
